# According to publication PMC11995724, “Antibiotic target discovery by integrated phenotypic and activity-based profiling of electrophilic fragments” (Cell chemical biology, 2025):
# Counter-ions that a name gives are not always drawn.
# Assay: in vitro
# Details: human, hek293t cells
row,Compound,"viability at 48 h, 25 µM [%]"
1,"N#Cc1ccc2c(c1)CCN2C(=O)CCl [5-N09, 1-(2-chloroacetyl)-2,3-dihydro-1H-indole-5-carbonitrile]",0.856
2,"CN(C1CCCCC1)S(=O)(=O)c1ccccc1NC(=O)CCl [5-N10, 2-chloro-N-{2-[cyclohexyl(methyl)sulfamoyl]phenyl}acetamide]",0.725
3,"CC(Cc1ccc(Cl)s1)NC(=O)CCl (stereo not shown) [5-N11, 2-chloro-N-[1-(5-chlorothiophen-2-yl)propan-2-yl]acetamide]",0.992
4,"CC(Cl)C(=O)Nc1cccc2ccccc12 (stereo not shown) [5-N12, 2-chloro-N-(naphthalen-1-yl)propanamide]",99.8
5,"C=CC(NC(=O)CCl)C1CCOCC1 (stereo not shown) [5-N13, 2-chloro-N-[1-(oxan-4-yl)prop-2-en-1-yl]acetamide]",111
6,"COc1ccc([N+](=O)[O-])cc1NC(=O)C(C)Cl (stereo not shown) [5-N14, 2-chloro-N-(2-methoxy-5-nitrophenyl)propanamide]",96.3
7,"CC(Cl)C(=O)NC(C)c1nnc(-c2cccc(F)c2)s1 (stereo not shown) [5-N15, 2-chloro-N-{1-[5-(3-fluorophenyl)-1,3,4-thiadiazol-2-yl]ethyl}propanamide]",98.1
8,"O=C(CCl)N(CC1CCCO1)C1CCS(=O)(=O)C1 (stereo not shown) [5-N16, 2-chloro-N-(1,1-dioxo-1lambda6-thiolan-3-yl)-N-[(oxolan-2-yl)methyl]acetamide]",2.2
9,"CC(Cl)C(=O)NC1CCc2cc(C#N)ccc21 (stereo not shown) [5-N17, 2-chloro-N-(5-cyano-2,3-dihydro-1H-inden-1-yl)propanamide]",105
10,"O=C(CCl)N(Cc1ccsc1)C1CC1 [5-N18, 2-chloro-N-cyclopropyl-N-[(thiophen-3-yl)methyl]acetamide]",1.23
11,"CC(Cl)C(=O)NCCC1=CCCCCC1 (stereo not shown) [5-N19, 2-chloro-N-[2-(cyclohept-1-en-1-yl)ethyl]propanamide]",120
12,"Cc1c(Cl)cccc1NC(=O)CNC(=O)CCl [5-N20, 2-chloro-N-{[(3-chloro-2-methylphenyl)carbamoyl]methyl}acetamide]",1.4
13,"CCOC(=O)c1cnn2ccc(NC(=O)C(C)Cl)cc12 (stereo not shown) [5-N21, ethyl 5-(2-chloropropanamido)pyrazolo[1,5-a]pyridine-3-carboxylate]",89.8
14,"CCSc1nnc(NC(=O)CCl)s1 [5-N22, 2-chloro-N-[5-(ethylsulfanyl)-1,3,4-thiadiazol-2-yl]acetamide]",7.36
15,"Cc1ccc(CNC(=O)C(C)Cl)cc1 (stereo not shown) [5-O03, 2-chloro-N-[(4-methylphenyl)methyl]propanamide]",94.7
16,"O=C(CCl)N1CCN(Cc2ccon2)CC1 [5-O04, 2-chloro-1-{4-[(1,2-oxazol-3-yl)methyl]piperazin-1-yl}ethan-1-one]",104
17,"O=C(CCl)NCCc1cccc(Cl)c1 [5-O05, 2-chloro-N-[2-(3-chlorophenyl)ethyl]acetamide]",36.9
18,"CC(NC(=O)CCl)c1cn(-c2ccccc2)nn1 (stereo not shown) [5-O06, 2-chloro-N-[1-(1-phenyl-1H-1,2,3-triazol-4-yl)ethyl]acetamide]",4.63
19,"O=C(CCl)NC1CCN(C(=O)c2ccco2)c2ccccc21 (stereo not shown) [5-O07, 2-chloro-N-[1-(furan-2-carbonyl)-1,2,3,4-tetrahydroquinolin-4-yl]acetamide]",1.59
20,"CC1CC(NC(=O)CCl)C(=O)N1c1cnn(C)c1 (stereo not shown) [5-O08, 2-chloro-N-[5-methyl-1-(1-methyl-1H-pyrazol-4-yl)-2-oxopyrrolidin-3-yl]acetamide]",100
21,"O=C(CCl)NC1CCCc2cn(C3CCCC3)nc21 (stereo not shown) [5-O09, 2-chloro-N-(2-cyclopentyl-4,5,6,7-tetrahydro-2H-indazol-7-yl)acetamide]",20.7
22,"C#Cc1cccc(N(Cc2cc3n(n2)CCCO3)C(=O)CCl)c1 [5-O10, 2-chloro-N-(3-ethynylphenyl)-N-({5H,6H,7H-pyrazolo[3,2-b][1,3]oxazin-2-yl}methyl)acetamide]",0.703
23,"COc1ccc(CNC(=O)CCl)cc1OC [5-O11, 2-chloro-N-[(3,4-dimethoxyphenyl)methyl]acetamide]",23.8
24,"CS(=O)(=O)N1CCC(N(CC(F)F)C(=O)CCl)CC1 [5-O12, 2-chloro-N-(2,2-difluoroethyl)-N-(1-methanesulfonylpiperidin-4-yl)acetamide]",1.77
25,"O=C(CCl)Nc1ccnn1Cc1cccs1 [5-O13, 2-chloro-N-{1-[(thiophen-2-yl)methyl]-1H-pyrazol-5-yl}acetamide]",0.591
26,"CCC(NC(=O)CCl)c1nc(C)n[nH]1 (stereo not shown) [5-O14, 2-chloro-N-[1-(3-methyl-1H-1,2,4-triazol-5-yl)propyl]acetamide]",96.8
27,"CC1CN(S(=O)(=O)c2ccc(NC(=O)CCl)cc2)CC(C)O1 (stereo not shown) [5-O15, 2-chloro-N-{4-[(2,6-dimethylmorpholin-4-yl)sulfonyl]phenyl}acetamide]",1.43
28,"COc1ccccc1C1CSCCCN1C(=O)CCl (stereo not shown) [5-O16, 2-chloro-1-[3-(2-methoxyphenyl)-1,4-thiazepan-4-yl]ethan-1-one]",78.1

row,Compound,"viability at 48 h, 25 µM [%]"
1,"COc1ccc(N(Cc2cccs2)C(=O)CCl)cc1 [5-O17, 2-chloro-N-(4-methoxyphenyl)-N-[(thiophen-2-yl)methyl]acetamide]",0.692
2,"O=C(CCl)N1CC(NC(=O)C(F)(F)F)CCC1C(F)(F)F (stereo not shown) [5-O18, N-[1-(2-chloroacetyl)-6-(trifluoromethyl)piperidin-3-yl]-2,2,2-trifluoroacetamide]",6.17
3,"CC(=O)c1ccccc1NC(=O)C(C)Cl (stereo not shown) [5-O19, N-(2-acetylphenyl)-2-chloropropanamide]",90.1
4,"COC1CCC(N(Cc2cc(C)oc2C)C(=O)CCl)CC1 (stereo not shown) [5-O20, 2-chloro-N-[(2,5-dimethylfuran-3-yl)methyl]-N-(4-methoxycyclohexyl)acetamide]",2.21
5,"CC(Cl)C(=O)NC1CCCCCC1 (stereo not shown) [5-O21, 2-chloro-N-cycloheptylpropanamide]",105
6,"COc1ccc(CC2CCN2C(=O)C(C)Cl)cc1 (stereo not shown) [5-O22, 2-chloro-1-{2-[(4-methoxyphenyl)methyl]azetidin-1-yl}propan-1-one]",88.3
7,"O=C(CCl)N(Cc1cc(F)ccc1F)CC1CCOCC1 [5-P03, 2-chloro-N-[(2,5-difluorophenyl)methyl]-N-[(oxan-4-yl)methyl]acetamide]",0.456
8,"N#Cc1ccccc1NC(=O)CCl [5-P04, 2-chloro-N-(2-cyanophenyl)acetamide]",0.525
9,"CNC(=O)c1cc(OC2CCCN(C(=O)CCl)C2)ccn1 (stereo not shown) [5-P05, 4-{[1-(2-chloroacetyl)piperidin-3-yl]oxy}-N-methylpyridine-2-carboxamide]",1.84
10,"O=C(CCl)NCc1ccccc1Cn1cccn1 [5-P06, 2-chloro-N-({2-[(1H-pyrazol-1-yl)methyl]phenyl}methyl)acetamide]",94
11,"N#CCCN(C(=O)CCl)c1ccccc1F [5-P07, 2-chloro-N-(2-cyanoethyl)-N-(2-fluorophenyl)acetamide]",1.04
12,"CC(C1CC1)N(CC(F)(F)F)C(=O)CCl (stereo not shown) [5-P08, 2-chloro-N-(1-cyclopropylethyl)-N-(2,2,2-trifluoroethyl)acetamide]",90.7
13,"O=C(CCl)NC1CCN(c2ccncc2)CC1 [5-P09, 2-chloro-N-[1-(pyridin-4-yl)piperidin-4-yl]acetamide hydrochloride]",48.1
14,"Cc1cccc(NC(=O)C(C)Cl)c1 (stereo not shown) [5-P10, 2-chloro-N-(3-methylphenyl)propanamide]",96.2
15,"CC(NC(=O)CCl)c1cc(C(F)(F)F)[nH]n1 (stereo not shown) [5-P11, 2-chloro-N-{1-[5-(trifluoromethyl)-1H-pyrazol-3-yl]ethyl}acetamide]",0.786
16,"CC(C)c1ccc(Cn2[nH]ccc2=NC(=O)CCl)cc1 [5-P12, 2-chloro-N-(2-{[4-(propan-2-yl)phenyl]methyl}-2,3-dihydro-1H-pyrazol-3-ylidene)acetamide]",-0.215
17,"CC(=O)NCc1ccc(C2CCCN2C(=O)CCl)o1 (stereo not shown) [5-P13, N-({5-[1-(2-chloroacetyl)pyrrolidin-2-yl]furan-2-yl}methyl)acetamide]",0.652
18,"CC(Cl)C(=O)Nc1cccc(C(F)(F)F)c1 (stereo not shown) [5-P14, 2-chloro-N-[3-(trifluoromethyl)phenyl]propanamide]",90.7
19,"CC(Cl)C(=O)NCc1ncnn1C(C)C (stereo not shown) [5-P15, 2-chloro-N-{[1-(propan-2-yl)-1H-1,2,4-triazol-5-yl]methyl}propanamide]",125
20,"CC(=O)c1ccc(S(=O)(=O)N2CCN(C(=O)CCl)CC2)cc1 [5-P16, 1-[4-(4-acetylbenzenesulfonyl)piperazin-1-yl]-2-chloroethan-1-one]",1.74
21,"CC(Cl)C(=O)N(Cc1ccc(Cl)cc1)Cc1cnn(C)c1 (stereo not shown) [5-P17, 2-chloro-N-[(4-chlorophenyl)methyl]-N-[(1-methyl-1H-pyrazol-4-yl)methyl]propanamide]",116
22,"Cc1cc(C)cc(N(CCC#N)C(=O)CCl)c1 [5-P18, 2-chloro-N-(2-cyanoethyl)-N-(3,5-dimethylphenyl)acetamide]",0.915
23,"O=C(CN1CCN(C(=O)CCl)CC1)Nc1cccc(F)c1 [5-P19, 2-[4-(2-chloroacetyl)piperazin-1-yl]-N-(3-fluorophenyl)acetamide hydrochloride]",1.84
24,"Cc1cccc(C)c1NC(=O)CCl [5-P20, 2-chloro-N-(2,6-dimethylphenyl)acetamide]",112
25,"CC(Cl)C(=O)N1Cc2ccoc2CC(C)(C)C1 (stereo not shown) [5-P21, 2-chloro-1-{7,7-dimethyl-4H,5H,6H,7H,8H-furo[3,2-c]azepin-5-yl}propan-1-one]",132
26,"COc1ccc(C)cc1NC(=O)C(C)Cl (stereo not shown) [5-P22, 2-chloro-N-(2-methoxy-5-methylphenyl)propanamide]",108
27,"O=C(CCl)Nc1cccc(NC(=O)c2ccccc2)c1 [6-A03, N-[3-(2-chloroacetamido)phenyl]benzamide]",-0.0459
